# Data taken from patent publication US8999980B2, “Oxazine derivatives” (Shionogi & Co., Ltd., priority 2009, dated 2015).
# Target: Recombinant human BACE1 (Homo sapiens (Human), UniProt P56817)
# Experiment: Assay of BACE1 inhibiting activity
# Type: biochemical
# Conditions: read-out: IC50 (50% inhibitory concentration against the enzymatic activity); Recombinant human BACE1 7.4 nmol/L, substrate peptide 18 nmol/L, pH 5.0, 30° C., 3 hours
# Method: 48.5 μL of substrate peptide solution (Biotin-XSEVNLDAEFRHDSGC-Eu: X=ε-amino-n-capronic acid, Eu=Europium cryptate) was added to each well of 96-hole half-area plate (a black plate: Costar), and after addition of 0.5 μl of the test compound (dissolved in N,N′-dimethyl formaldehyde) and 1 μl of Recombinant human BACE1(R&D Systems), the reaction mixture was incubated at 30° C. for 3 hours. The substrate peptide was synthesized by reacting Cryptate TBPCOOH mono SMP (CIS bio international) with Biotin-XSEVNLDAEFRHDSGC (Peptide Institute, Inc.).
# After the incubation for reaction, 50 μl of 8.0 μg/ml Streptavidin-XL665 (CIS bio international) dissolved in phosphate buffer (150 mmol/L K2HPO4—KH2PO4, pH 7.0, 0.008% Triton X-100, 0.8 mol/L KF) was added to each well and left stand at 30° C. for an hour.
# Sequence of Recombinant human BACE1 (P56817 46-501): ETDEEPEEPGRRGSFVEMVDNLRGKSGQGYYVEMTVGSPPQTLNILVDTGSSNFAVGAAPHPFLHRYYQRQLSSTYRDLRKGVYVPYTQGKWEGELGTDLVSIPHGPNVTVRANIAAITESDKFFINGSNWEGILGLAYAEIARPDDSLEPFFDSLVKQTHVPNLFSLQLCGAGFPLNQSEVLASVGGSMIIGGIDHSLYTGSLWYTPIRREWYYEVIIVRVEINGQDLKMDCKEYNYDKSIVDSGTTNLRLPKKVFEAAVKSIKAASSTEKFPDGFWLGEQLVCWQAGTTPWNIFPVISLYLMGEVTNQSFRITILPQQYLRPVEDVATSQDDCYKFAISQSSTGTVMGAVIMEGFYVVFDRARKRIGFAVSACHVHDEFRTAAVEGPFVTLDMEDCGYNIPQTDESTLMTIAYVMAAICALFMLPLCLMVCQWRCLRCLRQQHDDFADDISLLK
row,IC50,SMILES
1,≤ 30 µM,C=C1C[C@@](C)(c2cc(NC(=O)c3ncc(F)cc3F)ccc2F)N=C(N)O1 [Compound I-5]
2,≤ 30 µM,C=C1C[C@@](C)(c2cc(NC(=O)c3ncc(Cl)cc3Cl)ccc2F)N=C(N)O1 [Compound I-4]
3,0.027 µM,C=C1C[C@@](C)(c2cc(NC(=O)c3ccc(Cl)cn3)ccc2F)N=C(N)O1 [Compound I-2]
4,≤ 30 µM,C=C1C[C@@](C)(c2cc(NC(=O)c3cnc(OC)cn3)ccc2F)N=C(N)O1 [Compound I-3]
